Converted amounts (≈) assume the structure as drawn. The source made the active and inactive calls. No cut-off for these calls is given here.
Columns and labels:
Dihydrofolate reductase [1] = target: T1, Dihydrofolate reductase (Homo sapiens, UniProt P00374); assay: Inhibition of human DHFR
T1 sequence (P00374 whole entry): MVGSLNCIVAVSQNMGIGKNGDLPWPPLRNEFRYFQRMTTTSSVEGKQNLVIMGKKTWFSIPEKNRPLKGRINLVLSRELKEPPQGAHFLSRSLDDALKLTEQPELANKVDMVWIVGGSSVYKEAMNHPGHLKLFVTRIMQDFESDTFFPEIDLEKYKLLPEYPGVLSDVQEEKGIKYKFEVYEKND

Staphylococcus aureus [2] = assay: Antibacterial activity against Staphylococcus aureus USA 300 incubated for 24 hrs by CLSI based broth microdilution assay; assay type: functional
Staphylococcus aureus [3] = assay: Antibacterial activity against TMP-resistant Staphylococcus aureus BHKS 227 incubated for 24 hrs by CLSI based broth microdilution assay; assay type: functional
Staphylococcus aureus [4] = assay: Antibacterial activity against TMP-resistant Staphylococcus aureus BHKS 721 incubated for 24 hrs by CLSI based broth microdilution assay; assay type: functional
Dihydrofolate reductase [5] = target: T2, Dihydrofolate reductase (Staphylococcus aureus, UniProt P0A017); assay: Inhibition of Staphylococcus aureus DHFR expressed in Escherichia coli BL21 (DE3) using DHF as substrate preincubated for 10 mins followed by substrate addition measured for 10 mins in presence of NADPH by spectrophotometry
Staphylococcus aureus [6] = assay: Bactericidal activity against Staphylococcus aureus ATCC 25923 assessed as bacterial growth suppression measured for 24 hrs by time kill assay; assay type: functional, organism-based
[7] = Acute toxicity in C57 mouse assessed as body weight loss at 400 to 800 mg/kg, po measured for 2 days; assay type: organism-based; conditions: in vivo, 48 h, dose 400-800 mg/kg, time 2 day
[8] = Acute toxicity in C57 mouse assessed as body weight loss at 400 to 800 mg/kg, po measured for 4 days; assay type: organism-based; conditions: in vivo, 96 h, dose 400-800 mg/kg, time 4 day
[9] = Acute toxicity in C57 mouse assessed as liver inflammation at 800 mg/kg, po measured after 1 week by biochemical analysis; assay type: organism-based; conditions: in vivo, 168 h, time 1 weeks
[10] = Acute toxicity in C57 mouse assessed as damage in heart at 800 mg/kg, po measured after 1 week by H and E staining based analysis; assay type: organism-based; conditions: in vivo, 168 h, time 1 weeks
[11] = Acute toxicity in C57 mouse assessed as damage in liver at 800 mg/kg, po measured after 1 week by H and E staining based analysis; assay type: organism-based; conditions: in vivo, 168 h, time 1 weeks
[12] = Acute toxicity in C57 mouse assessed as damage in spleen at 800 mg/kg, po measured after 1 week by H and E staining based analysis; assay type: organism-based; conditions: in vivo, 168 h, time 1 weeks
[13] = Acute toxicity in C57 mouse assessed as damage in kidney at 800 mg/kg, po measured after 1 week by H and E staining based analysis; assay type: organism-based; conditions: in vivo, 168 h, time 1 weeks
[14] = Acute toxicity in C57 mouse assessed as damage in lung at 800 mg/kg, po measured after 1 week by H and E staining based analysis; assay type: organism-based; conditions: in vivo, 168 h, time 1 weeks
[15] = Metabolic stability in human liver microsomes assessed as half life at 3 uM measured for 120 mins by LC-MS/MS analysis; assay type: ADME, Microsome; conditions: 2 h
[16] = Metabolic stability in human liver microsomes assessed as clearance rate at 3 uM measured for 120 mins by LC-MS/MS analysis; assay type: ADME, Microsome; conditions: 2 h
[17] = Metabolic stability in mouse liver microsomes assessed as half life at 3 uM measured for 120 mins by LC-MS/MS analysis; assay type: ADME, Microsome; conditions: 2 h
[18] = Metabolic stability in mouse liver microsomes assessed as clearance rate at 3 uM measured for 120 mins by LC-MS/MS analysis; assay type: ADME, Microsome; conditions: 2 h
[19] = Cmax in Sprague-Dawley rat at 5 mg/kg, iv measured for 24 hrs by LC/MS analysis; assay type: ADME, organism-based; conditions: in vivo
[20] = AUC (0 to t) in Sprague-Dawley rat at 5 mg/kg, iv measured for 24 hrs by LC/MS analysis; assay type: ADME, organism-based; conditions: in vivo
[21] = Cmax in Sprague-Dawley rat at 15 mg/kg, po measured for 24 hrs by LC/MS analysis; assay type: ADME, organism-based; conditions: in vivo
[22] = Tmax in Sprague-Dawley rat at 15 mg/kg, po measured for 24 hrs by LC/MS analysis; assay type: ADME, organism-based; conditions: in vivo
[23] = Oral bioavailability in Sprague-Dawley rat at 15 mg/kg measured for 24 hrs by LC/MS analysis; assay type: ADME, organism-based; conditions: in vivo
Staphylococcus aureus [24] = assay: Antibacterial activity against methicillin-resistant Staphylococcus aureus ATCC 33591 infected in C57 mouse model assessed as wound healing at 2 to 10 mg/kg administered once a day for 3 days consecutively and measured after 24 hrs post-last dose; assay type: functional, organism-based; conditions: dose 2-10 mg/kg, time 4.0 day
Staphylococcus aureus [25] = assay: Antibacterial activity against methicillin-resistant Staphylococcus aureus ATCC 33591 infected in C57 mouse model assessed as decrease in skin abscess at 2 to 10 mg/kg administered once a day for 3 days consecutively and measured after 24 hrs post-last dose; assay type: functional, organism-based; conditions: dose 2-10 mg/kg, time 4.0 day
Staphylococcus aureus [26] = assay: Antibacterial activity against methicillin-resistant Staphylococcus aureus ATCC 33591 infected in C57 mouse model assessed as decrease in pathological change at 2 to 10 mg/kg administered once a day for 3 days consecutively and measured after 24 hrs post-last dose by H and E staining based analysis; assay type: functional, organism-based; conditions: dose 2-10 mg/kg, time 4.0 day
Staphylococcus aureus [27] = assay: Antibacterial activity against methicillin-resistant Staphylococcus aureus ATCC 33591 infected in C57 mouse model assessed as clear skin structure at 2 to 10 mg/kg administered once a day for 3 days consecutively and measured after 24 hrs post-last dose by H and E staining based analysis; assay type: functional, organism-based; conditions: dose 2-10 mg/kg, time 4.0 day
Dihydrofolate reductase [28] = target: T2, Dihydrofolate reductase; assay: Binding affinity to Staphylococcus aureus DHFR expressed in Escherichia coli BL21 (DE3) assessed dissociation constant by ITC analysis
Staphylococcus aureus [29] = assay: Synergistic antibacterial activity against Staphylococcus aureus ATCC 25923 assessed as fractional inhibitory concentration index incubated for 24 hrs in presence of SMX by CLSI based broth microdilution assay; assay type: functional
Staphylococcus aureus [30] = assay: Synergistic antibacterial activity against Staphylococcus aureus USA 300 assessed as fractional inhibitory concentration index incubated for 24 hrs in presence of SMX by CLSI based broth microdilution assay; assay type: functional
Staphylococcus aureus [31] = assay: Synergistic antibacterial activity against TMP-resistant Staphylococcus aureus BHKS 227 assessed as fractional inhibitory concentration index incubated for 24 hrs in presence of SMX by CLSI based broth microdilution assay; assay type: functional
Staphylococcus aureus [32] = assay: Synergistic antibacterial activity against TMP-resistant Staphylococcus aureus BHKS 721 assessed as fractional inhibitory concentration index incubated for 24 hrs in presence of SMX by CLSI based broth microdilution assay; assay type: functional
Staphylococcus aureus [33] = assay: Synergistic antibacterial activity against TMP-resistant Staphylococcus aureus BHKS 723 assessed as fractional inhibitory concentration index incubated for 24 hrs in presence of SMX by CLSI based broth microdilution assay; assay type: functional
Staphylococcus aureus [34] = assay: Synergistic antibacterial activity against TMP-resistant Staphylococcus aureus BHKS 231 assessed as fractional inhibitory concentration index incubated for 24 hrs in presence of SMX by CLSI based broth microdilution assay; assay type: functional
Staphylococcus aureus [35] = assay: Antibacterial activity against TMP-resistant Staphylococcus aureus BHKS 231 incubated for 24 hrs by CLSI based broth microdilution assay; assay type: functional
[36] = test system: Dihydrofolate reductase (Staphylococcus aureus); conditions: dose 100.0 nM
[37] = target: Dihydrofolate reductase (Staphylococcus aureus) (UniProt P0A017); conditions: dose 10.0 µM, time 10.0 min
Dihydrofolate reductase (Staphylococcus aureus) (UniProt P0A017), sequence (P0A017 2-159 limits assumed): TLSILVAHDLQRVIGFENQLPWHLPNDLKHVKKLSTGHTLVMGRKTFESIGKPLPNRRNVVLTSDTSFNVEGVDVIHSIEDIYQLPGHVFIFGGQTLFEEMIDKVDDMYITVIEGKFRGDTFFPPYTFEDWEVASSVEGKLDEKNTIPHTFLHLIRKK

T2 sequence (P0A017 whole entry): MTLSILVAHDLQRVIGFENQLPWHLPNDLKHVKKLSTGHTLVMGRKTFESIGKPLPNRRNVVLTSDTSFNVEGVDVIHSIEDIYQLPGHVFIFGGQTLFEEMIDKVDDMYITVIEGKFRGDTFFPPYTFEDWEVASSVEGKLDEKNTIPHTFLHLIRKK

Compound `CC(C)c1cc(OCC2CC2)c(I)cc1Oc1cnc(N)nc1N` has an IC50 (Dihydrofolate reductase [1]) of 4190 nM, an MIC (Staphylococcus aureus [2]) of 0.031 µg/mL (≈ 0.0704 µM) and an MIC (Staphylococcus aureus [3]) of 0.5 µg/mL (≈ 1.14 µM). The MIC (Staphylococcus aureus [4]) was 4 µg/mL (≈ 9.09 µM), the IC50 (Dihydrofolate reductase [5]) was 0.97 nM and the Activity (Staphylococcus aureus [6]) was “Dose-Dependent Effect”. The Activity [7] was “Toxic”, the Activity [8] was “Non-Toxic” and the Activity [9] was “Toxic”. The Activity [10] was “Non-Toxic”, the Activity [11] was “Non-Toxic” and the Activity [12] was “Non-Toxic”. For the same compound, the Activity [13] was “Non-Toxic”, the Activity [14] was “Non-Toxic” and the t1/2 [15] was 2.435 h. It also gave a CLH [16] of 0.7 µL/min/mg, a t1/2 [17] of 0.437 h and a CLH [18] of 4.1 µL/min/mg. The Cmax [19] was 4060 ng/mL, the AUC(0-t) at 24 h [20] was 3240 ng·h/mL and the Cmax [21] was 579 ng/mL. The Tmax [22] was 1.33 h, the bioavailability [23] was 40.7% and the Activity (Staphylococcus aureus [24]) was “Active”. For the same compound, the Activity (Staphylococcus aureus [25]) was “Active”, the Activity (Staphylococcus aureus [26]) was “Active” and the Activity (Staphylococcus aureus [27]) was “Active”. For the same compound, the Kd (Dihydrofolate reductase [28]) was 1540 nM, the “fractional inhibitory concentration index (FICI)” value (Staphylococcus aureus [29]) was 0.066 and the “fractional inhibitory concentration index (FICI)” value (Staphylococcus aureus [30]) was 0.022. For the same compound, the “fractional inhibitory concentration index (FICI)” value (Staphylococcus aureus [31]) was 0.27, the “fractional inhibitory concentration index (FICI)” value (Staphylococcus aureus [32]) was 0.375 and the “fractional inhibitory concentration index (FICI)” value (Staphylococcus aureus [33]) was 0.156. The “fractional inhibitory concentration index (FICI)” value (Staphylococcus aureus [34]) was 1, the MIC (Staphylococcus aureus [35]) was 32 µg/mL (≈ 72.7 µM) and the inhibition [36] was 47.4%. The ΔTm [37] was 18 °C.

Reference: ChEMBL document CHEMBL5528082 (J Med Chem, 2024)
